Source: patent publication US9540343B2 (Gilead Sciences, Inc., priority 2011, dated 2017)

Tests used:
HIV-IIIb = experiment: Test A: Antiviral assay in MT4 cells; assay type: cell-based, HIV-1; conditions: Human immunodeficiency virus 1, IIIB, MT4, 120 h, read-out: % inhibition at 2 μM, percent inhibition of virus-induced cell killing, from dose response curve at 2 uM drug; MT-4 cells infected with HIV-IIIb, 5 days, CellTiter-Glo
in vitro = conditions: human, uninfected MT-4 cells, CC50 (nM), same protocol as Test A, CellTiter-Glo
Method in brief: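 Cytoprotection read-out: CellTiter-Glo chemiluminescence after 5 days at 37 °C of HIV-IIIb-infected MT-4 cells (m.o.i. 0.003) with compound in 10-point 3-fold dilutions, quadruplicate, 10% FBS. Cytotoxicity (CC50) measured identically without virus.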

| SMILES | inhibition at 2 µM (HIV-IIIb) [%] | CC50 at 5 days (in vitro) [nM] |
| --- | --- | --- |
| NC(=O)c1cc(-c2cccnc2[C@H](Cc2cc(F)cc(F)c2)NC(=O)Cn2nc(C(F)(F)F)c3c2CC(=O)CC3)ccc1F [Example 322, (S)-5-(2-(2-(3,5-difluorophenyl)-1-(2-(6-oxo-3-(trifluoromethyl)-4,5,6,7-tetrahydro-1H-indazol-1-yl)acetamido)ethyl)pyridin-3-yl)-2-fluorobenzamide] | 10 | 37100 |
| NC(=O)c1cc(-c2cccnc2[C@H](Cc2cc(F)cc(F)c2)NC(=O)Cn2cc(C(=O)O)c(C(F)(F)F)n2)ccc1F [Example 323, (S)-1-(2-(1-(3-(3-carbamoyl-4-fluorophenyl)pyridin-2-yl)-2-(3,5-difluorophenyl)ethylamino)-2-oxoethyl)-3-(trifluoromethyl)-1H-pyrazole-4-carboxylic acid] | 0 | > 53200 |
| CN1CCc2c(c(C(F)(F)F)nn2CC(=O)N[C@@H](Cc2cc(F)cc(F)c2)c2ncccc2-c2ccc(F)c(C(N)=O)c2)C1 [Example 324, (S)-5-(2-(2-(3,5-difluorophenyl)-1-(2-(5-methyl-3-(trifluoromethyl)-4,5,6,7-tetrahydro-1H-pyrazolo[4,3-c]pyridin-1-yl)acetamido)ethyl)pyridin-3-yl)-2-fluorobenzamide] | 31 | > 53200 |
| NC(=O)c1cc(-c2cccnc2[C@H](Cc2cc(F)cc(F)c2)NC(=O)Cn2nc(C(F)(F)F)c3c2CC(O)CC3)ccc1F (stereo partly drawn) [Example 325, 5-(2-((1S)-2-(3,5-difluorophenyl)-1-(2-(6-hydroxy-3-(trifluoromethyl)-4,5,6,7-tetrahydro-1H-indazol-1-yl)acetamido)ethyl)pyridin-3-yl)-2-fluorobenzamide] | 86 | 46100 |
| NC(=O)c1cc(-c2cccnc2[C@H](Cc2cccc(F)c2)NC(=O)Cn2c(=O)[nH]c3ccccc32)ccc1F [Example 326, (S)-2-fluoro-5-(2-(2-(3-fluorophenyl)-1-(2-(2-oxo-2,3-dihydro-1H-benzo[d]imidazol-1-yl)acetamido)ethyl)pyridin-3-yl)benzamide] | 27 | > 53200 |
| NC(=O)c1cccc(-c2cncnc2[C@H](Cc2cc(F)cc(F)c2)NC(=O)Cc2c[nH]c3ccc(O)cc23)c1 [Example 327, (S)-3-(4-(2-(3,5-difluorophenyl)-1-(2-(5-hydroxy-1H-indol-3-yl)acetamido)ethyl)pyrimidin-5-yl)benzamide] | 94 | > 53200 |
| O=C(Cc1c[nH]c2ccc(F)cc12)NC(Cc1cc(F)cc(F)c1)c1nc[nH]c(=O)c1-c1ccc(Cl)cc1 (stereo not drawn) [Example 328, N-(1-(5-(4-chlorophenyl)-6-oxo-1,6-dihydropyrimidin-4-yl)-2-(3,5-difluorophenyl)ethyl)-2-(5-fluoro-1H-indol-3-yl)acetamide] | 0 | 10000 |
| CCOCc1cn(CC(=O)N[C@@H](Cc2cc(F)cc(F)c2)c2ncccc2-c2ccc(F)c(C(N)=O)c2)nc1C(F)(F)F [Example 330, (S)-5-(2-(2-(3,5-difluorophenyl)-1-(2-(4-(ethoxymethyl)-3-(trifluoromethyl)-1H-pyrazol-1-yl)acetamido)ethyl)pyridin-3-yl)-2-fluorobenzamide] | 3 | 29300 |
| O=C(Cc1c[nH]c2ccc(=O)[nH]c12)N[C@@H](Cc1cc(F)cc(F)c1)c1ncncc1-c1ccc(Cl)cc1 [Example 331B, (S)—N-(1-(5-(4-chlorophenyl)pyrimidin-4-yl)-2-(3,5-difluorophenyl)ethyl)-2-(5-oxo-4,5-dihydro-1H-pyrrolo[3,2-b]pyridin-3-yl)acetamide] | 99 | 43100 |
| NC(=O)c1cc(-c2cccnc2[C@H](Cc2cc(F)cc(F)c2)NC(=O)COc2ccnc(Cl)c2)ccc1F [Example 332B, (S)-5-(2-(1-(2-(2-chloropyridin-4-yloxy)acetamido)-2-(3,5-difluorophenyl)ethyl)pyridin-3-yl)-2-fluorobenzamide] | 2 | 40000 |
| CNCc1cn(CC(=O)N[C@@H](Cc2cc(F)cc(F)c2)c2ncccc2-c2ccc(F)c(C(N)=O)c2)nc1C(F)(F)F [Example 333, (S)-5-(2-(2-(3,5-difluorophenyl)-1-(2-(4-((methylamino)methyl)-3-(trifluoromethyl)-1H-pyrazol-1-yl)acetamido)ethyl)pyridin-3-yl)-2-fluorobenzamide] | 2 | > 53200 |
| NC(=O)c1cc(-c2cccnc2[C@H](Cc2cc(F)cc(F)c2)NC(=O)Cn2nc(C(F)F)c3c2C(F)(F)CCC3O)ccc1F (stereo partly drawn) [Example 334, 5-(2-((1S)-1-(2-(3-(difluoromethyl)-7,7-difluoro-4-hydroxy-4,5,6,7-tetrahydro-1H-indazol-1-yl)acetamido)-2-(3,5-difluorophenyl)ethyl)pyridin-3-yl)-2-fluorobenzamide] | 63 | 26500 |
| NC(=O)c1cc(-c2cccnc2[C@H](Cc2cc(F)cc(F)c2)NC(=O)Cn2cc(CNC3CC3)c(C(F)(F)F)n2)ccc1F [Example 335, (S)-5-(2-(1-(2-(4-((cyclopropylamino)methyl)-3-(trifluoromethyl)-1H-pyrazol-1-yl)acetamido)-2-(3,5-difluorophenyl)ethyl)pyridin-3-yl)-2-fluorobenzamide] | 3 | 51100 |
| NC(=O)c1cc(-c2cccnc2[C@H](Cc2cc(F)cc(F)c2)NC(=O)Cn2cnc3c(=O)[nH]ccc32)ccc1F [Example 336, (S)-5-(2-(2-(3,5-difluorophenyl)-1-(2-(4-oxo-4,5-dihydro-1H-imidazo[4,5-c]pyridin-1-yl)acetamido)ethyl)pyridin-3-yl)-2-fluorobenzamide] | 0 | > 53200 |
| N#Cc1nn(CC(=O)N[C@@H](Cc2cc(F)cc(F)c2)c2ncccc2-c2ccc(F)c(C(N)=O)c2)cc1C1CC1 [Example 337, (S)-5-(2-(1-(2-(3-cyano-4-cyclopropyl-1H-pyrazol-1-yl)acetamido)-2-(3,5-difluorophenyl)ethyl)pyridin-3-yl)-2-fluorobenzamide] | 20 | 27900 |
| NC(=O)c1cccc(-c2cccnc2[C@H](Cc2cc(F)cc(F)c2)NC(=O)Cc2c[nH]c3cc(C4CC4)c(=O)[nH]c23)c1 [Example 338C, (S)-3-(2-(1-(2-(6-cyclopropyl-5-oxo-4,5-dihydro-1H-pyrrolo[3,2-b]pyridin-3-yl)acetamido)-2-(3,5-difluorophenyl)ethyl)pyridin-3-yl)benzamide] | 35 | > 53000 |
| NC(=O)c1cc(-c2cccnc2[C@H](Cc2cc(F)cc(F)c2)NC(=O)Cn2nc(C(F)(F)F)c3c2CCC=C3)ccc1F [Example 339B, (S)-5-(2-(2-(3,5-difluorophenyl)-1-(2-(3-(trifluoromethyl)-6,7-dihydro-1H-indazol-1-yl)acetamido)ethyl)pyridin-3-yl)-2-fluorobenzamide] | 53 | 19400 |
| NC(=O)c1cc(-c2cccnc2[C@H](Cc2cc(F)cc(F)c2)NC(=O)Cn2nc(C(F)(F)F)c3c2C(F)(F)CCC3=O)ccc1F [Example 340B, (S)-5-(2-(1-(2-(7,7-difluoro-4-oxo-3-(trifluoromethyl)-4,5,6,7-tetrahydro-1H-indazol-1-yl)acetamido)-2-(3,5-difluorophenyl)ethyl)pyridin-3-yl)-2-fluorobenzamide] | 32 | 32800 |
